For one assay, the target named is PTGER2 (EP2) (Homo sapiens, UniProt P43116). Nature of the assay: cell-based.
The next assay concerns the target PTRGER4 (EP4) (Homo sapiens, UniProt P35408). Nature of the assay: cell-based.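 Note: assay plate preincubated 15 min at 37 °C, after which PGE2 was added at 20 nM final and incubation continued 120 min at 37 °C.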

The structures appear in SMILES notation. pIC50: −log10 of the molar value.

Chain of PTGER2 (EP2) (P43116 whole entry): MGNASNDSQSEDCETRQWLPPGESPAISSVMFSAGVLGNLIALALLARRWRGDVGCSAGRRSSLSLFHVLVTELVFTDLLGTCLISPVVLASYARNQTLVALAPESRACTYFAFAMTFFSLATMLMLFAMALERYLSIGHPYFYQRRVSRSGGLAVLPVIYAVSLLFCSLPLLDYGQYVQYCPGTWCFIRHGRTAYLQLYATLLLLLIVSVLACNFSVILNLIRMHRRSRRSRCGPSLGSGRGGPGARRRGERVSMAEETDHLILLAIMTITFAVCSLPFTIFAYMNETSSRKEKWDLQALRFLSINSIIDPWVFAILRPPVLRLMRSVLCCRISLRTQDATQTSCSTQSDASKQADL
Chain of PTRGER4 (EP4) (P35408 whole entry): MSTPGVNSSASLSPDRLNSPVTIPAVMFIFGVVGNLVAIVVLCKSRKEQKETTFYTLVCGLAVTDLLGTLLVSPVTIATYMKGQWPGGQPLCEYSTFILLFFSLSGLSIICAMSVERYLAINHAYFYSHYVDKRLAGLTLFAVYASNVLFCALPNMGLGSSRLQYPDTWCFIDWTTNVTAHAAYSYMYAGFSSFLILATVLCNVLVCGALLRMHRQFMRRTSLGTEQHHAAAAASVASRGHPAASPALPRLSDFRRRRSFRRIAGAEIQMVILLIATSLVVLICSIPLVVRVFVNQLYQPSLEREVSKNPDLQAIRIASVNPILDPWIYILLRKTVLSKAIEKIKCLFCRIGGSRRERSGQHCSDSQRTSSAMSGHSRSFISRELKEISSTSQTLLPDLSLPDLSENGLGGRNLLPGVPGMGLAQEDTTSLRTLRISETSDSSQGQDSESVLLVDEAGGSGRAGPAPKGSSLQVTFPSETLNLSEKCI
Text for PTRGER4 (EP4): The assay is using the PathHunter™ HEK 293 PTGER2 and PTGER4 b-arrestin cell lines from DiscoverX. The system is based on the Enzyme Fragment Complementation Technology. Two complementing fragments of the b-galactosidase enzyme are expressed within stably transfected cells. The larger portion of b-gal, termed EA for Enzyme Acceptor, is fused to the C-terminus of b-arrestin 2. The smaller fragment, termed ProLink™ tag, is fused to PTGER2 (EP2) or PTRGER4 (EP4) at the C-terminus. Upon activation, b-arrestin is recruited which forces the interaction of ProLink and EA, allowing complementation of the two fragments of b-gal and the formation of a functional enzyme which is capable of hydrolysing the substrate and generating a chemiluminescent signal.
The HEK 293 PTGER4 b-arrestin cells (DiscoverX 93-030-4C1) are detached from culture dishes with a cell dissociation buffer (Invitrogen, 13151-014), and collected in growing medium (GM: DMEM+Glutamax-I (Invitrogen 32430)/10% FCS, 1% Penicilin/streptomycin). 5000 cells per well of a 384 well plate (white with white bottom Greiner 781080) are seeded in 20 ul per well of GM. Plate is incubated at 37° C., 5% CO2 for 24 hours.
Stock solutions of test compounds are made at a concentration of 10 mM in DMSO, and serially diluted in DMSO to concentrations required for inhibition dose response curves (tested concentration range 10 μM-2 nM or 1 μM-0.2 nM).
PGE2 (Cayman 14010, stock solution: 100 uM in DMSO) is used as agonist at 20 nM final concentration, corresponding to EC80.
Five microliters of diluted compounds are transferred into the assay plate. Plate is pre-incubated 15 minutes at 37° C. Then five microliters of PGE2 (final conc. 20 nM) are transferred into the assay plate. Plate is incubated 120 minutes at 37° C.
Twelve μl of reagent are transferred to the assay plate and incubate for 1 hour at room temperature in the dark. Luminescence counts are read on a BMG Fluostar Optima reader according to manufacturers instructions.
For each compound concentration calculate of the percentage of activity compared to DMSO control value as average±STDEV. (each concentration is measured in duplicate)
When compounds were measured multiple times, mean values are given.

Turning to `O=C(O)Cc1ccc(-c2cc(NCCc3c(F)cc(Br)cc3F)ncn2)cc1OC(F)(F)F` [Example 236, (4-{6-[2-(4-Bromo-2,6-difluoro-phenyl)-ethylamino]-pyrimidin-4-yl}-2-trifluoromethoxy-phenyl)-acetic acid], the pIC50 at PTGER2 (EP2) was 6.58; against PTRGER4 (EP4), 6.45.
The matching figures for `CCOc1cc(-c2cc(NCCc3cc(F)c(F)cc3OC)ncn2)sc1C(=O)O` [Example 179, 5-{6-[2-(4,5-Difluoro-2-methoxy-phenyl)-ethylamino]-pyrimidin-4-yl}-3-ethoxy-thiophene-2-carboxylic acid]: 6.85 and 6.50.
The matching figures for `COc1ccc(SC)cc1CCNc1cc(-c2ccc(C(=O)O)c(OC3CCC3)c2)ncn1` [Example 173, 2-Cyclobutoxy-4-{6-[2-(2-methoxy-5-methylsulfanyl-phenyl)-ethylamino]pyrimidin-4-yl}-benzoic acid]: 6.97 and 6.28.
The matching figures for `CCNC(=O)c1ccc(-c2cc(NCCc3c(F)cc(Br)cc3F)ncn2)cc1OCC` [Example 299, 4-{6-[2-(4-Bromo-2,6-difluoro-phenyl)-ethylamino]-pyrimidin-4-yl}-2-ethoxy-N-ethyl-benzamide]: 6.84 and 6.59.
In the case of `COc1cc(C)c(C)cc1CCNc1cc(-c2ccc(C(=O)O)c(OC3CCC3)c2)ncn1` [Example 188, 2-Cyclobutoxy-4-{6-[2-(2-methoxy-4,5-dimethyl-phenyl)-ethylamino]-pyrimidin-4-yl}-benzoic acid], the pIC50 on PTGER2 (EP2) was 6.75; against PTRGER4 (EP4), 6.93.
Turning to `CCOc1cc(-c2cc(NCCc3cc(C)c(C)cc3OC)ncn2)cc(F)c1CC(=O)O` [Example 193, (2-Ethoxy-6-fluoro-4-{6-[2-(2-methoxy-4,5-dimethyl-phenyl)-ethylamino]-pyrimidin-4-yl}-phenyl)-acetic acid], the pIC50 was 6.10 against PTGER2 (EP2) and 6.80 on PTRGER4 (EP4).
The matching figures for `CCCc1cc(-c2cc(NCCc3c(F)cc(Br)cc3F)ncn2)ccc1C(=O)NCC` [Example 305, 4-{6-[2-(4-Bromo-2,6-difluoro-phenyl)-ethylamino]-pyrimidin-4-yl}-N-ethyl-2-propyl-benzamide]: 6.69 and 6.20.
Regarding `CCOc1cc(-c2cc(NCCc3c(F)cc(C(F)(F)F)cc3OC)ncn2)ccc1C(=O)O` [Example 226, 2-Ethoxy-4-{6-[2-(2-fluoro-6-methoxy-4-trifluoromethyl-phenyl)-ethylamino]-pyrimidin-4-yl}-benzoic acid], the pIC50 against PTGER2 (EP2) was 6.04; on PTRGER4 (EP4), 6.56.
For `CCOc1cc(-c2cc(NCCc3cc(C)c(C)cc3OC)ncn2)ccc1CC(=O)O` [Example 190, (2-Ethoxy-4-{6-[2-(2-methoxy-4,5-dimethyl-phenyl)-ethylamino]-pyrimidin-4-yl}-phenyl)-acetic acid], in that order: 6.31 and 6.74.
The matching figures for `COc1cc(C)c(C)cc1CCNc1cc(-c2ccc(CC(=O)O)c(SC)c2)ncn1` [Example 191, (4-{6-[2-(2-Methoxy-4,5-dimethyl-phenyl)-ethylamino]-pyrimidin-4-yl}-2-methylsulfanyl-phenyl)-acetic acid]: 6.49 and 6.84.
As to `CCCc1cc(-c2cc(NCCc3c(F)cc(Br)cc3F)ncn2)ccc1C1(C(=O)O)CC1` [Example 172, 1-(4-{6-[2-(4-Bromo-2,6-difluoro-phenyl)-ethylamino]-pyrimidin-4-yl}-2-propyl-phenyl)-cyclopropanecarboxylic acid], the pIC50 is 6.36 on PTGER2 (EP2) and 6.40 against PTRGER4 (EP4).
For `CCOc1cc(-c2cc(NCCc3c(C)cc(C)cc3OC)ncn2)ccc1CC(=O)O` [Example 202, (2-Ethoxy-4-{6-[2-(2-methoxy-4,6-dimethyl-phenyl)-ethylamino]-pyrimidin-4-yl}-phenyl)-acetic acid], in that order: 6.22 and 6.44.
For `CCCc1cc(-c2cc(NCCc3cc(Cl)c(C(F)(F)F)cc3OC)ncn2)ccc1C(=O)O` [Example 197, 4-{6-[2-(5-Chloro-2-methoxy-4-trifluoromethyl-phenyl)-ethylamino]-pyrimidin-4-yl}-2-propyl-benzoic acid], the negative-log IC50 (pIC50) was 6.27 against PTGER2 (EP2) and 6.79 against PTRGER4 (EP4).
The matching figures for `CCOc1cc(-c2cc(NCCc3ccc(OC(F)F)cc3OC)ncn2)sc1C(=O)O` [Example 224, 5-{6-[2-(4-Difluoromethoxy-2-methoxy-phenyl)-ethylamino]-pyrimidin-4-yl}-3-ethoxy-thiophene-2-carboxylic acid]: 7.43 and 7.64.
Turning to `O=CNc1ccc(-c2cc(NCCc3c(F)cc(Br)cc3F)ncn2)cc1` [Example 238, N-(4-{6-[2-(4-Bromo-2,6-difluoro-phenyl)-ethylamino]-pyrimidin-4-yl}-phenyl)-formamide], the pIC50 against PTGER2 (EP2) was 6.60; on PTRGER4 (EP4), 6.36.
The matching figures for `Cc1cc(-c2cc(NCCc3c(F)cc(Br)cc3F)ncn2)ccc1CC(=O)O` [Example 254, (4-{6-[2-(4-Bromo-2,6-difluoro-phenyl)-ethylamino]-pyrimidin-4-yl}-2-methyl-phenyl)-acetic acid]: 6.12 and 6.06.
For `OCCOc1ccc(-c2cc(NCCc3c(F)cc(Br)cc3F)ncn2)cc1` [Example 311, 2-(4-{6-[2-(4-Bromo-2,6-difluoro-phenyl)-ethylamino]-pyrimidin-4-yl}-phenoxy)-ethanol], in that order: 6.67 and 6.11.
The matching figures for `COc1cc(OC(F)F)ccc1CCNc1cc(-c2ccc(C(=O)O)c(SC)c2)ncn1` [Example 221, 4-{6-[2-(4-Difluoromethoxy-2-methoxy-phenyl)-ethylamino]-pyrimidin-4-yl}-2-methylsulfanyl-benzoic acid]: 7.04 and 6.57.
Take `O=c1c(O)c(-c2ccc(-c3cc(NCCc4c(F)cc(Br)cc4F)ncn3)cc2)c1=O` [Example 243, 3-(4-{6-[2-(4-Bromo-2,6-difluoro-phenyl)-ethylamino]-pyrimidin-4-yl}-phenyl)-4-hydroxy-cyclobut-3-ene-1,2-dione]: the negative-log IC50 (pIC50) on PTGER2 (EP2) is 7.39; on PTRGER4 (EP4) it was 7.21.
In the case of `CCCc1cc(-c2cc(NCCc3c(F)cc(Br)cc3F)ncn2)ccc1C(=O)NCCO` [Example 306, 4-{6-[2-(4-Bromo-2,6-difluoro-phenyl)-ethylamino]-pyrimidin-4-yl}-N-(2-hydroxy-ethyl)-2-propyl-benzamide], the pIC50 was 7.01 on PTGER2 (EP2) and 6.39 against PTRGER4 (EP4).
The matching figures for `CCCOc1cc(-c2cc(NCCc3c(C)cc(C)cc3OC)ncn2)ccc1CC(=O)O` [Example 204, (4-{6-[2-(2-Methoxy-4,6-dimethyl-phenyl)-ethylamino]-pyrimidin-4-yl}-2-propoxy-phenyl)-acetic acid]: 6.36 and 6.16.
Turning to `CCOC(=O)CCc1sc(-c2cc(NCCc3c(F)cc(Br)cc3F)ncn2)cc1OCC` [Example 247, 3-(5-{6-[2-(4-Bromo-2,6-difluoro-phenyl)-ethylamino]-pyrimidin-4-yl}-3-ethoxy-thiophen-2yl)-propionic acid ethyl ester], the pIC50 at PTGER2 (EP2) was 6.10; against PTRGER4 (EP4), 6.56.
For `CCOc1cc(-c2cc(NCCc3c(F)cc(Br)cc3F)ncn2)ccc1NCC(=O)O` [Example 182, (4-{6-[2-(4-Bromo-2,6-difluoro-phenyl)-ethylamino]-pyrimidin-4-yl}-2-ethoxy-phenylamino)-acetic acid], in that order: 6.79 and 6.68.
For `CCOc1cc(-c2cc(NCCc3c(F)cc(OC)cc3F)ncn2)ccc1C(=O)O` [Example 228, 4-{6-[2-(2,6-Difluoro-4-methoxy-phenyl)-ethylamino]-pyrimidin-4-yl}-2-ethoxy-benzoic acid], in that order: 6.30 and 6.11.
The matching figures for `CCCc1cc(-c2cc(NCCc3c(F)cc(Br)cc3F)ncn2)ccc1C(N)=O` [Example 303, 4-{6-[2-(4-Bromo-2,6-difluoro-phenyl)-ethylamino]-pyrimidin-4-yl}-2-propyl-benzamide]: 7.36 and 6.79.
As to `O=C(O)Cc1ccc(-c2cc(NCCc3c(F)cc(Br)cc3F)ncn2)cc1OC1CC1` [Example 260, (4-{6-[2-(4-Bromo-2,6-difluoro-phenyl)-ethylamino]-pyrimidin-4-yl}-2-cyclopropoxy-phenyl)-acetic acid], the results for the pIC50 against PTGER2 (EP2) and on PTRGER4 (EP4) were 6.69 and 6.12, respectively.
Turning to `CCCc1cc(-c2cc(NCCc3c(F)cc(Br)cc3F)ncn2)ccc1C(=O)NCCOC` [Example 307, 4-{6-[2-(4-Bromo-2,6-difluoro-phenyl)-ethylamino]-pyrimidin-4-yl}-N-(2-methoxy-ethyl)-2-propyl-benzamide], the results for the pIC50 on PTGER2 (EP2) and at PTRGER4 (EP4) were 6.66 and 6.11, respectively.
Turning to `CSc1cc(-c2cc(NCCc3ccc(C(F)(F)F)cc3OC(F)F)ncn2)ccc1C(=O)O` [Example 218, 4-{6-[2-(2-Difluoromethoxy-4-trifluoromethyl-phenyl)-ethylamino]-pyrimidin-4-yl}-2-methylsulfanyl-benzoic acid], the results for the pIC50 against PTGER2 (EP2) and against PTRGER4 (EP4) were 6.16 and 6.04, respectively.
The matching figures for `Fc1cc(Br)cc(F)c1CCNc1cc(-c2ccc3nccn3c2)ncn1` [Example 309, [2-(4-Bromo-2,6-difluoro-phenyl)-ethyl]-(6-imidazo[1,2-a]pyridin-6-yl-pyrimidin-4-yl)-amine]: 6.45 and 6.06.
For `CCOc1cc(-c2cc(NCCc3cc(F)c(C(F)F)cc3OC)ncn2)ccc1C(=O)O` [Example 183, 4-{6-[2-(4-Difluoromethyl-5-fluoro-2-methoxy-phenyl)-ethylamino]-pyrimidin-4-yl}-2-ethoxy-benzoic acid], in that order: 6.16 and 6.18.
For `CCOc1cc(-c2cc(NCCc3c(F)cc(Br)cc3F)ncn2)ccc1C1(C(=O)O)CC1` [Example 171, 1-(4-{6-[2-(4-Bromo-2,6-difluoro-phenyl)-ethylamino]-pyrimidin-4-yl}-2-ethoxy-phenyl)-cyclopropanecarboxylic acid], in that order: 6.17 and 6.24.

These data come from patent US11712438B2, “Phenyl derivatives as PGE2 receptor modulators” (IDORSIA PHARMACEUTICALS LTD, priority 2017, dated 2023).
